How the values were obtained:
[1] = target: full-length MALT1 protein (Strep-MALT1(1-824)-His) (Homo sapiens (Human), UniProt Q9UDY8); test: MALT1 Biochemical Protease Assay (Ac-LRSR-AMC substrate); conditions: 10 nM FL MALT1, 200 μM Ac-LRSR-AMC, 4 h at RT; read-out: MALT1_Biochemical activity (Ac-LRSR-amc) IC50
Method in brief: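 Full-length MALT1 pre-incubated with compounds (30 μM to 0.5 nM, 11 threefold steps) for 50 min at RT. After Ac-LRSR-AMC was added, the reaction ran 4 h at RT and AMC fluorescence was read. IC50 and Hill slope from curve fitting against no-enzyme and no-compound controls.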

[2] = system: IL10 secretion by TMD8 ABC-DLBCL cells; test: Human IL10 Mesoscale assay (TMD-8); assay type: cell-based; conditions: Homo sapiens, TMD8; TMD-8 cells, 24 h
Method in brief: (§1)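 After 24 h at 37 °C with test compounds (15 μM down to 58.6 nM, 9 twofold steps, 0.3% DMSO), IL6 and IL10 secreted by 100,000 OCI-LY3 or TMD8 cells per well were measured in supernatants with a Mesoscale immunoassay. Data were scaled between DMSO wells (high) and RN486 treatment (low).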

[3] = system: IL6 secretion by TMD8 ABC-DLBCL cells; test: Human IL6 Mesoscale assay (TMD-8); assay type: cell-based; conditions: Homo sapiens, TMD8; TMD-8 cells, 24 h
Method in brief: as §1

full-length MALT1 protein (Strep-MALT1(1-824)-His), sequence (Q9UDY8 whole entry): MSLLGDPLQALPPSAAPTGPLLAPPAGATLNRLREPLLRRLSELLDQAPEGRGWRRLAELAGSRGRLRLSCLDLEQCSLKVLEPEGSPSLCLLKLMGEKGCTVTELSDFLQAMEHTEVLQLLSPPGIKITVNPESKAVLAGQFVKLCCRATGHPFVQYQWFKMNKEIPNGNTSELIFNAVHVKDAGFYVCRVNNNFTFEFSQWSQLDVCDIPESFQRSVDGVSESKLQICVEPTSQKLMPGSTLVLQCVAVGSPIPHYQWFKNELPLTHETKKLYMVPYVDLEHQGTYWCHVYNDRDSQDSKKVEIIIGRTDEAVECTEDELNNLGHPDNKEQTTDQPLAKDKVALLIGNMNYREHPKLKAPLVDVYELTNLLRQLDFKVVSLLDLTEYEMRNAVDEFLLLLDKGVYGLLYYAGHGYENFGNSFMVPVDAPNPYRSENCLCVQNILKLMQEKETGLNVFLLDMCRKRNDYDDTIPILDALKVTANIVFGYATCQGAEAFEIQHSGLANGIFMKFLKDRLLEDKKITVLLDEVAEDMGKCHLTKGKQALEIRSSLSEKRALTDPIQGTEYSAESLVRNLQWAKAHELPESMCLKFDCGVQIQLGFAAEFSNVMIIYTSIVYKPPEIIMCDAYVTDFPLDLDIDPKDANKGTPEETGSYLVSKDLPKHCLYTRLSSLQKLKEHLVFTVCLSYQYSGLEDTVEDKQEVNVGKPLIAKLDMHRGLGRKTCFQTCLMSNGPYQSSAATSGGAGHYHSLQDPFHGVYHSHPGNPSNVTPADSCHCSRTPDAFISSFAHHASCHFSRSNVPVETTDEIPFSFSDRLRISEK

Row | Compound | IC50 [1] | IC50 [2] | IC50 [3]
1 | COc1ncc(NC(=O)c2cnn(-c3cccc4c(=O)[nH]ccc34)c2C(F)(F)F)cc1C#N [Cpd 428, N-(5-cyano-6-methoxypyridin-3-yl)-1-(1-oxo-1,2-dihydroisoquinolin-5-yl)-5-(trifluoromethyl)-1H-pyrazole-4-carboxamide] | 11 nM | 240 nM | 550 nM
2 | Cc1nc(-n2cccn2)c(Cl)cc1NC(=O)c1cnn(-c2cccc3c(=O)[nH]ccc23)c1C(F)(F)F [Cpd 170, N-(5-chloro-2-methyl-6-(1H-pyrazol-1-yl)pyridin-3-yl)-1-(1-oxo-1,2-dihydroisoquinolin-5-yl)-5-(trifluoromethyl)-1H-pyrazole-4-carboxamide] | 135 nM | 112 nM | 339 nM
3 | COC(=O)c1cn(-c2ncc(NC(=O)c3cnn(-c4cccc5ncccc45)c3C(F)(F)F)cc2Cl)nn1 [Cpd 249, methyl 1-(3-chloro-5-(1-(quinolin-5-yl)-5-(trifluoromethyl)-1H-pyrazole-4-carboxamido)pyridin-2-yl)-1H-1,2,3-triazole-4-carboxylate] | 331 nM | 148 nM | 148 nM
4 | O=C(Nc1cnc(-n2nccn2)c(Cl)c1)c1cnn(-c2cccc3snnc23)c1C(F)(F)F [Cpd 231, 1-(benzo[d][1,2,3]thiadiazol-4-yl)-N-(5-chloro-6-(2H-1,2,3-triazol-2-yl)pyridin-3-yl)-5-(trifluoromethyl)-1H-pyrazole-4-carboxamide] | 891 nM | 851 nM | 724 nM
5 | O=C(Nc1cnc(-n2nccn2)c(Cl)c1)c1c(F)nn(-c2cccc3ncccc23)c1C(F)(F)F [Cpd 160, N-(5-chloro-6-(2H-1,2,3-triazol-2-yl)pyridin-3-yl)-3-fluoro-1-(quinolin-5-yl)-5-(trifluoromethyl)-1H-pyrazole-4-carboxamide] | 389 nM | 93 nM | 95 nM
6 | CC(=O)c1cc(-n2ncc(C(=O)Nc3cnc(-n4nccn4)c(Cl)c3)c2C(F)(F)F)c2ccccc2n1 [Cpd 375, 1-(2-acetylquinolin-4-yl)-N-(5-chloro-6-(2H-1,2,3-triazol-2-yl)pyridin-3-yl)-5-(trifluoromethyl)-1H-pyrazole-4-carboxamide] | 355 nM | 85 nM | 102 nM

Continued, values first:

Row | IC50 [1] | IC50 [2] | IC50 [3] | Compound
7 | 316 nM | 8710 nM | > 15100 nM | O=C(Nc1ccnc(C(F)(F)F)c1)c1cnn(-c2cccc3nccn23)c1C(F)(F)F [Cpd 208, 1-(imidazo[1,2-a]pyridin-5-yl)-5-(trifluoromethyl)-N-(2-(trifluoromethyl)pyridin-4-yl)-1H-pyrazole-4-carboxamide]
8 | 19 nM | 105 nM | 89 nM | N#Cc1cc(NC(=O)c2cnn(-c3nccc4occc34)c2C(F)(F)F)cnc1-n1nccn1 [Cpd 94, N-(5-cyano-6-(2H-1,2,3-triazol-2-yl)pyridin-3-yl)-1-(furo[3,2-c]pyridin-4-yl)-5-(trifluoromethyl)-1H-pyrazole-4-carboxamide]
9 | 447 nM | 182 nM | 389 nM | CC(=O)c1nccc2c(-n3ncc(C(=O)Nc4cnc(-n5nccn5)c(Cl)c4)c3C(F)(F)F)cccc12 [Cpd 378, 1-(1-acetylisoquinolin-5-yl)-N-(5-chloro-6-(2H-1,2,3-triazol-2-yl)pyridin-3-yl)-5-(trifluoromethyl)-1H-pyrazole-4-carboxamide]
10 | 224 nM | 1120 nM | 1480 nM | O=C(Nc1ccnc(C(F)(F)F)c1)c1cnn(-c2ccc(F)c3nccn23)c1C(F)(F)F [Cpd 209, 1-(8-fluoroimidazo[1,2-a]pyridin-5-yl)-5-(trifluoromethyl)-N-(2-(trifluoromethyl)pyridin-4-yl)-1H-pyrazole-4-carboxamide]
11 | 166 nM | 36 nM | 123 nM | O=C(Nc1cnc(-n2nccn2)c(Cl)c1)c1cnn(-c2cnc(F)c3ccccc23)c1C(F)(F)F [Cpd 264, N-(5-chloro-6-(2H-1,2,3-triazol-2-yl)pyridin-3-yl)-1-(1-fluoroisoquinolin-4-yl)-5-(trifluoromethyl)-1H-pyrazole-4-carboxamide]
